This passage reports EC50 and Emax results from patent publication US8173645B2 (Takeda San Diego, Inc., priority 2007, dated 2012).

The target of this assay is T1, glucokinase (GK), residues 12-465 of the human enzyme (Homo sapiens, UniProt P35557).
T1 construct: I.D. No. 1 corresponds to residues 12-465 of glucokinase; made in house; host or cells: E. coli DH10b-Tlr
T1 sequence (P35557 with tags, fused parts or gaps isoform P35557-2): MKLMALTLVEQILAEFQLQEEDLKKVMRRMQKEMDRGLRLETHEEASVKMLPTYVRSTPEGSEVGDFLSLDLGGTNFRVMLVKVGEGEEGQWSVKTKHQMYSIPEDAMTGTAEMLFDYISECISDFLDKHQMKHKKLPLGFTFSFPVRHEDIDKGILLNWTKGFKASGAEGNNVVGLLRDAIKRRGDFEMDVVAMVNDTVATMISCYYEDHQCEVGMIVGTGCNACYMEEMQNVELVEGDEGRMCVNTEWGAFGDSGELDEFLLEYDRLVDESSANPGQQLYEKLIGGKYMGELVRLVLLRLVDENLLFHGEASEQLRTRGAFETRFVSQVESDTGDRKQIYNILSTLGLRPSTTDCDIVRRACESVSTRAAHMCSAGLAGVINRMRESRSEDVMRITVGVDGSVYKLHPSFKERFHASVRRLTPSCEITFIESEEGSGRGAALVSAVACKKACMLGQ
In words: Enzymatic glucokinase activity assay (KinaseGlo luminescence, ATP consumption). To be noted: 5 μM ATP, 5 mM Glucose; for EC50: GK activation, Kact = concentration giving 50% of the maximal increase in GK activity, read-out: pKact; for Emax: calculated maximal gain in GK enzyme activity at a saturating concentration of the compound, read-out: % ACTmax. The class given is biochemical. In a few lines:
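C-terminally FLAG-tagged enzyme expressed in E. coli and purified. Reaction: 25 mM Hepes pH 7.2, 25 mM NaCl, 10 mM MgCl2, 0.01% Brij35, 1 mM DTT, 5 μM ATP, 5 mM glucose, 2% DMSO, 60 min at room temperature. Remaining ATP was read by luciferase luminescence; pKact and % ACTmax came from nonlinear fits of 11-point 2-fold dilutions.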

SMILES strings stand for the structures.

Turning to `O=C(Nc1nccs1)[C@H](CC1CCCCC1)N1CCN(S(=O)(=O)c2ccc(-n3cccn3)cc2)CC1=O` [Example 215, (S)-2-(4-(4-(1H-pyrazol-1-yl)phenylsulfonyl)-2-oxopiperazin-1-yl)-3-cyclohexyl-N-(thiazol-2-yl)propanamide], the EC50 lay in the range of 1.58 to 2.51 µM and the Emax is 74.1 to 97%.
For the compound `O=C(Nc1nccs1)[C@H](CC1CCCCC1)N1CCN(S(=O)(=O)c2cnc(Cl)c(Br)c2)CC1=O` [Example 217, (S)-2-(4-(5-bromo-6-chloropyridin-3-ylsulfonyl)-2-oxopiperazin-1-yl)-3-cyclohexyl-N-(thiazol-2-yl)propanamide], the EC50 is 1.58 to 2.51 µM and the Emax was not above 74%.
Regarding `Cc1ccccc1S(=O)(=O)N1CCN([C@@H](CC2CCCCC2)C(=O)Nc2nccs2)C(=O)C1` [Example 218, (S)-3-cyclohexyl-2-(2-oxo-4-(o-tolylsulfonyl)piperazin-1-yl)-N-(thiazol-2-yl)propanamide], the EC50 lay within 0.794 to 1.26 µM and the Emax is 108 to 119%.
`O=C(Nc1nccs1)[C@H](CC1CCCCC1)N1CCN(S(=O)(=O)c2cc(Cl)c(Cl)cc2Cl)CC1=O` [Example 219, (S)-3-cyclohexyl-2-(2-oxo-4-(2,4,5-trichlorophenylsulfonyl)piperazin-1-yl)-N-(thiazol-2-yl)propanamide]: the EC50 lay in the range of 1.58 to 2.51 µM and the Emax was not above 74%.
For `O=C(Nc1nccs1)[C@H](CC1CCCCC1)N1CCN(S(=O)(=O)c2ccc(Cl)c(Cl)c2Cl)CC1=O` [Example 220, (S)-3-cyclohexyl-2-(2-oxo-4-(2,3,4-trichlorophenylsulfonyl)piperazin-1-yl)-N-(thiazol-2-yl)propanamide], the EC50 is 0.794 to 1.26 µM and the Emax was not above 74%.
`Cc1cc(S(=O)(=O)N2CCN([C@@H](CC3CCCCC3)C(=O)Nc3nccs3)C(=O)C2)c(Cl)cc1Cl` [Example 221, (S)-3-cyclohexyl-2-(4-(2,4-dichloro-5-methylphenylsulfonyl)-2-oxopiperazin-1-yl)-N-(thiazol-2-yl)propanamide]: the EC50 was 1.58 to 2.51 µM and the Emax was not above 74%.
As to `Cc1ccc(S(=O)(=O)N2CCN([C@@H](CC3CCCCC3)C(=O)Nc3nccs3)C(=O)C2)c(F)c1` [Example 222, (S)-3-cyclohexyl-2-(4-(2-fluoro-4-methylphenylsulfonyl)-2-oxopiperazin-1-yl)-N-(thiazol-2-yl)propanamide], the EC50 is not above 0.631 µM and the Emax is 108 to 119%.
With `Cc1cc(F)ccc1S(=O)(=O)N1CCN([C@@H](CC2CCCCC2)C(=O)Nc2nccs2)C(=O)C1` [Example 223, (S)-3-cyclohexyl-2-(4-(4-fluoro-2-methylphenylsulfonyl)-2-oxopiperazin-1-yl)-N-(thiazol-2-yl)propanamide], the EC50 fell in the range of 1.58 to 2.51 µM and the Emax is 97.1 to 107%.
Regarding `CC(C)(C)c1ccc(S(=O)(=O)N2CCN([C@@H](CC3CCCCC3)C(=O)Nc3nccs3)C(=O)C2)cc1` [Example 224, (S)-2-(4-(4-tert-butylphenylsulfonyl)-2-oxopiperazin-1-yl)-3-cyclohexyl-N-(thiazol-2-yl)propanamide], the EC50 is 0.794 to 1.26 µM and the Emax was not above 74%.
Taken in the same sequence, the figures for `CCc1ccc(S(=O)(=O)N2CCN([C@@H](CC3CCCCC3)C(=O)Nc3nccs3)C(=O)C2)cc1` [Example 225, (S)-3-cyclohexyl-2-(4-(4-ethylphenylsulfonyl)-2-oxopiperazin-1-yl)-N-(thiazol-2-yl)propanamide] were 0.794 to 1.26 µM and 97.1 to 107%.
For `O=C(Nc1nccs1)[C@H](CC1CCCCC1)N1CCN(S(=O)(=O)c2cc3ccccc3o2)CC1=O` [Example 226, (S)-2-(4-(benzofuran-2-ylsulfonyl)-2-oxopiperazin-1-yl)-3-cyclohexyl-N-(thiazol-2-yl)propanamide], the EC50 is 0.794 to 1.26 µM and the Emax is 74.1 to 97%.
Turning to `O=C(Nc1nccs1)[C@H](CC1CCCCC1)N1CCN(S(=O)(=O)C2CCCCC2)CC1=O` [Example 227], the EC50 was not above 0.631 µM and the Emax was not below 119%.
As to `COc1ccc(Oc2cccc(S(=O)(=O)N3CCN([C@@H](CC4CCCCC4)C(=O)Nc4nccs4)C(=O)C3)c2)cc1` [Example 228, (S)-3-cyclohexyl-2-(4-(3-(4-methoxyphenoxy)phenylsulfonyl)-2-oxopiperazin-1-yl)-N-(thiazol-2-yl)propanamide], the EC50 lay in the range of 0.794 to 1.26 µM and the Emax was not above 74%.
With `O=C(Nc1nccs1)[C@H](CC1CCCCC1)N1CCN(S(=O)(=O)N2CCCC2)CC1=O` [Example 229, (S)-3-cyclohexyl-2-(2-oxo-4-(pyrrolidin-1-ylsulfonyl)piperazin-1-yl)-N-(thiazol-2-yl)propanamide], the EC50 is not above 0.631 µM and the Emax was 108 to 119%.
With `N#Cc1cc(S(=O)(=O)N2CCN([C@@H](CC3CCCCC3)C(=O)Nc3nccs3)C(=O)C2)ccc1F` [Example 230, (S)-2-(4-(3-cyano-4-fluorophenylsulfonyl)-2-oxopiperazin-1-yl)-3-cyclohexyl-N-(thiazol-2-yl)propanamide], the EC50 was 1.58 to 2.51 µM and the Emax was 74.1 to 97%.
For `O=C(Nc1nccs1)[C@H](CC1CCCCC1)N1CCN(S(=O)(=O)c2ccc(Br)c(Br)c2)CC1=O` [Example 231, (S)-3-cyclohexyl-2-(4-(3,4-dibromophenylsulfonyl)-2-oxopiperazin-1-yl)-N-(thiazol-2-yl)propanamide], the EC50 lay within 0.794 to 1.26 µM and the Emax was not above 74%.
On the same counts, the results for `O=C(Nc1nccs1)[C@H](CC1CCCCC1)N1CCN(S(=O)(=O)c2cccc(Br)c2)CC1=O` [Example 232, (S)-2-(4-(3-bromophenylsulfonyl)-2-oxopiperazin-1-yl)-3-cyclohexyl-N-(thiazol-2-yl)propanamide] are not above 0.631 µM and 108 to 119%.
